Assays:
human EHMT2 913-1193 = target: T1, human EHMT2 913-1193 (Homo sapiens, UniProt Q96KQ7); assay: EHMT2 enzyme assay on histone peptide substrate (3H-SAM SPA); conditions: EHMT2 IC50, recombinant human EHMT2 913-1193, histone peptide substrate
T1 sequence (Q96KQ7 913-1193): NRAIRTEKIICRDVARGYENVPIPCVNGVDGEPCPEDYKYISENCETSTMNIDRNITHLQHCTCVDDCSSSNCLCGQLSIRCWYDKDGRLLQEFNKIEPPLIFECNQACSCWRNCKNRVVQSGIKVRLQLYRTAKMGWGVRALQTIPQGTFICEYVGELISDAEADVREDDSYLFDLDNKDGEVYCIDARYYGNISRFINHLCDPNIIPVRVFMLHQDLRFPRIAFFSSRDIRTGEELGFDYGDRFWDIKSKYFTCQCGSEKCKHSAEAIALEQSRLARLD

H3K9me2 in HCT116 cells = assay: HCT116 H3K9me2 in-cell western assay; type: cell-based; conditions: Homo sapiens, HCT-116, 72 h, HCT116 cells, 72 hours incubation; read-out: H3K9me2 ICW IC50
How it was run: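 HCT116 cells (2,000/well) were treated for 72 h at 37° C, 5% CO2, with ten two-fold dilutions from 10 μM in duplicate. After PFA fixation, cells were stained overnight at 4° C with anti-H3K9me2, then with an 800 CW secondary plus DRAQ5.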

human EHMT1 982-1266 = target: T2, human EHMT1 982-1266 (Homo sapiens, UniProt Q9H9B1); assay: EHMT1 enzyme assay on histone peptide substrate (3H-SAM SPA); conditions: EHMT1 IC50, recombinant human EHMT1 982-1266, histone peptide substrate
T2 sequence (Q9H9B1 982-1266): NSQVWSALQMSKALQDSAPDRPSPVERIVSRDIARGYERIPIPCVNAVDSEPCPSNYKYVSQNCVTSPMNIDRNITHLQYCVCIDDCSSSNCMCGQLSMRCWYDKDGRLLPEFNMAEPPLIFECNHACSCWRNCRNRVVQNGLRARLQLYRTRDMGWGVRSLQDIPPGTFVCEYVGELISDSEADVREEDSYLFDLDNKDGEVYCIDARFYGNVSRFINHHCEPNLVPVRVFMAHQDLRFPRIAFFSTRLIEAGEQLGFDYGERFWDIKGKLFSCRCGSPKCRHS

Row | IC50 (human EHMT2 913-1193) | IC50 (H3K9me2 in HCT116 cells) | IC50 (human EHMT1 982-1266) | SMILES
1 | < 0.1 µM | < 0.1 µM | < 0.1 µM | [2H]C([2H])([2H])Nc1cc(C)nc(Nc2cc3c(c(C4=CCNCCC4)c2)OCCC3)n1 [Compound 264]
2 | < 0.1 µM | < 0.1 µM | < 0.1 µM | [2H]Cc1cc(NC)nc(Nc2cc3c(c(C4=CCN(C)CCC4)c2)OCO3)n1 [Compound 265]
3 | 0.1 to 0.5 µM | < 0.1 µM | < 0.1 µM | [2H]Cc1cc(NC)nc(Nc2cc3c(c(C4=CCN(C)CCC4)c2)OCCO3)n1 [Compound 266]
4 | 0.5 to 2 µM | 0.1 to 0.5 µM | 0.1 to 0.5 µM | CNc1nc(Nc2cc3c(c(C4=CCN(C)CCC4)c2)OCC3)nc(C)c1F [Compound 267]
5 | 0.1 to 0.5 µM | 0.1 to 0.5 µM | < 0.1 µM | [2H]C([2H])([2H])Nc1cc(C)nc(Nc2cc3c(c(C4=CCN(C)CCC4)c2)OCCC3)n1 [Compound 268]
6 | < 0.1 µM | < 0.1 µM | < 0.1 µM | [2H]Cc1cc(NC)nc(Nc2cc3c(c(C4=CCNCCC4)c2)OCO3)n1 [Compound 269]
7 | < 0.1 µM | < 0.1 µM | < 0.1 µM | [2H]Cc1cc(NC)nc(Nc2cc3c(c(C4=CCNCCC4)c2)OCCO3)n1 [Compound 270]
8 | 0.5 to 2 µM | 0.1 to 0.5 µM | 0.1 to 0.5 µM | [2H]C([2H])([2H])Nc1nc(Nc2cc3c(c(C4=CCN(C)CCC4)c2)OCC3)nc(C)c1F [Compound 271]
9 | 0.5 to 2 µM | 0.1 to 0.5 µM | 0.1 to 0.5 µM | [2H]C([2H])([2H])CNc1cc(C)nc(Nc2cc3c(c(C4=CCN(C)CCC4)c2)OCCO3)n1 [Compound 272]
10 | 0.1 to 0.5 µM | < 0.1 µM | < 0.1 µM | [2H]C([2H])([2H])Nc1cc(C)nc(Nc2cc3c(c(C4=CCN(C)CCC4)c2)OCO3)n1 [Compound 273]
11 | < 0.1 µM | < 0.1 µM | < 0.1 µM | [2H]C([2H])([2H])N1CC=C(c2cc(Nc3nc(C)cc(NC)n3)cc3c2OCC3)CCC1 [Compound 274]
12 | 0.5 to 2 µM | 0.1 to 0.5 µM | 0.1 to 0.5 µM | [2H]C([2H])([2H])Nc1nc(Nc2cc3c(c(C4=CCNCCC4)c2)OCO3)nc(C)c1F [Compound 275]
13 | 0.1 to 0.5 µM | 0.1 to 0.5 µM | 0.1 to 0.5 µM | [2H]C([2H])([2H])Nc1nc(Nc2cc3c(c(C4=CCNCCC4)c2)OCC3)nc(C)c1F [Compound 276]
14 | 0.1 to 0.5 µM | 0.1 to 0.5 µM | 0.1 to 0.5 µM | CNc1nc(Nc2cc3c(c(C4=CCNCCC4)c2)OCC3)nc(C)c1F [Compound 277]
15 | 0.1 to 0.5 µM | 0.1 to 0.5 µM | < 0.1 µM | CNc1cc(C)nc(Nc2cc3c(c(C4=CCN(C)CCC4)c2)OCC3)c1 [Compound 278]
16 | 0.5 to 2 µM | 0.1 to 0.5 µM | 0.1 to 0.5 µM | CNc1nc(Nc2cc3c(c(C4=CCNCCC4)c2)OCO3)nc(C)c1F [Compound 279]
17 | < 0.1 µM | < 0.1 µM | < 0.1 µM | CNc1cc(C)nc(Nc2cc3c(c(C4=CCN(C)CCC4)c2F)OCC3)n1 [Compound 280, N2-[6-fluoro-7-(1-methyl-2,3,4,7-tetrahydroazepin-5-yl)-2,3-dihydrobenzofuran-5-yl]-N4,6-dimethyl-pyrimidine-2,4-diamine]
18 | < 0.1 µM | < 0.1 µM | < 0.1 µM | [2H]C([2H])([2H])Nc1cc(C)nc(Nc2cc3c(c(C4=CCNCCC4)c2)OCO3)n1 [Compound 281]
19 | 0.5 to 2 µM | 0.1 to 0.5 µM | < 0.1 µM | [2H]C([2H])([2H])Nc1cc(C)nc(Nc2cc3c(c(C4=CCN(C)CCC4)c2)OCCO3)n1 [Compound 282]
20 | < 0.1 µM | < 0.1 µM | < 0.1 µM | [2H]C([2H])([2H])Nc1cc(C)nc(Nc2cc3c(c(C4=CCNCCC4)c2)OCCO3)n1 [Compound 283]
21 | 0.5 to 2 µM | 0.1 to 0.5 µM | 0.1 to 0.5 µM | CNc1nc(Nc2cc3c(c(C4=CCNCCC4)c2)OCC3)nc(C)c1Cl [Compound 284]
22 | 0.1 to 0.5 µM | 0.1 to 0.5 µM | 0.1 to 0.5 µM | [2H]C([2H])([2H])CNc1cc(C)nc(Nc2cc3c(c(C4=CCNCCC4)c2)OCCO3)n1 [Compound 285]
23 | 0.1 to 0.5 µM | 0.1 to 0.5 µM | < 0.1 µM | CNc1nc(Nc2cc3c(c(C4=CCN(C)CCC4)c2)OCC3)nc(C)c1C [Compound 286]
24 | < 0.1 µM | < 0.1 µM | < 0.1 µM | CNc1nc(Nc2cc3c(c(C4=CCNCCC4)c2)OCC3)nc(C)c1C [Compound 287]
25 | < 0.1 µM | 0.1 to 0.5 µM | < 0.1 µM | CNc1cc(C)nc(Nc2cc3c(c(C4=CCNCCC4)c2)OCC3)c1 [Compound 288]

Row | IC50 (human EHMT2 913-1193) | IC50 (H3K9me2 in HCT116 cells) | IC50 (human EHMT1 982-1266) | SMILES
26 | 0.1 to 0.5 µM | 0.1 to 0.5 µM | 0.1 to 0.5 µM | Cc1cc(NCC2CCCO2)nc(Nc2cc3c(c(C4=CCN(C)CCC4)c2)OCC3)n1 (stereo not drawn) [Compound 292]
27 | 0.1 to 0.5 µM | 0.5 to 2 µM | 0.1 to 0.5 µM | COCCCNc1cc(C)nc(Nc2cc3c(c(C4=CCNCCC4)c2)OCC3)c1 [Compound 293]
28 | 0.1 to 0.5 µM | 0.1 to 0.5 µM | < 0.1 µM | Cc1cc(NCC2CCCO2)nc(Nc2cc3c(c(C4=CCNCCC4)c2)OCC3)n1 (stereo not drawn) [Compound 294]
29 | 0.5 to 2 µM | 0.5 to 2 µM | 0.1 to 0.5 µM | COCCCNc1cc(C)nc(Nc2cc3c(c(C4=CCN(C)CCC4)c2)OCC3)c1 [Compound 295]
30 | 0.1 to 0.5 µM | 0.1 to 0.5 µM | < 0.1 µM | [2H]C([2H])([2H])CNc1cc(C)nc(Nc2cc3c(c(C4=CCN(C)CCC4)c2)OCC3)n1 [Compound 296]
31 | 0.5 to 2 µM | 0.5 to 2 µM | 0.1 to 0.5 µM | COCCNc1cc(C)nc(Nc2cc3c(c(C4=CCN(C)CCC4)c2)OCC3)c1 [Compound 297]
32 | 0.1 to 0.5 µM | 0.1 to 0.5 µM | < 0.1 µM | COCCCNc1cc(C)nc(Nc2cc3c(c(C4=CCN(C)CCC4)c2)OCC3)n1 [Compound 298]
33 | 0.1 to 0.5 µM | 0.1 to 0.5 µM | < 0.1 µM | Cc1cc(NCC2CCOCC2)nc(Nc2cc3c(c(C4=CCN(C)CCC4)c2)OCC3)n1 [Compound 299]
34 | < 0.1 µM | 0.1 to 0.5 µM | < 0.1 µM | [2H]C([2H])([2H])CNc1cc(C)nc(Nc2cc3c(c(C4=CCNCCC4)c2)OCC3)n1 [Compound 300]
35 | < 0.1 µM | 0.1 to 0.5 µM | < 0.1 µM | [2H]C([2H])([2H])Nc1cc(C)nc(Nc2cc3c(c(C4=CCN(C)CCC4)c2)OCC3)n1 [Compound 301]
36 | < 0.1 µM | < 0.1 µM | < 0.1 µM | [2H]Cc1cc(NC)nc(Nc2cc3c(c(C4=CCNCCC4)c2)OCC3)n1 [Compound 302]
37 | < 0.1 µM | < 0.1 µM | < 0.1 µM | [2H]Cc1cc(NC)nc(Nc2cc3c(c(C4=CCN(C)CCC4)c2)OCC3)n1 [Compound 303]
38 | < 0.1 µM | 0.1 to 0.5 µM | < 0.1 µM | CNc1cc(Nc2cc3c(c(C4=CCNCCC4)c2)OCC3)nc(C)c1F [Compound 304]
39 | 0.1 to 0.5 µM | 0.5 to 2 µM | 0.1 to 0.5 µM | COCCNc1cc(C)nc(Nc2cc3c(c(C4=CCNCCC4)c2)OCC3)c1 [Compound 305]
40 | < 0.1 µM | < 0.1 µM | < 0.1 µM | [2H]C([2H])([2H])Nc1cc(C)nc(Nc2cc3c(c(C4=CCNCCC4)c2)OCC3)n1 [Compound 306]
41 | 0.5 to 2 µM | 0.5 to 2 µM | 0.1 to 0.5 µM | CNc1cc(C)nc(Nc2cc3c(c(C4=CCCNCC4C)c2)OCC3)n1 (stereo not drawn) [Compound 307]
42 | < 0.1 µM | 0.1 to 0.5 µM | < 0.1 µM | Cc1cc(NCC2CCOCC2)nc(Nc2cc3c(c(C4=CCNCCC4)c2)OCC3)n1 [Compound 308]
43 | 0.5 to 2 µM | 0.5 to 2 µM | 0.1 to 0.5 µM | Cc1cc(NCC(F)(F)F)cc(Nc2cc3c(c(C4=CCNCCC4)c2)OCC3)n1 [Compound 309]
44 | < 0.1 µM | 0.1 to 0.5 µM | < 0.1 µM | COCCCNc1cc(C)nc(Nc2cc3c(c(C4=CCNCCC4)c2)OCC3)n1 [Compound 310]
45 | 0.5 to 2 µM | 0.1 to 0.5 µM | 0.1 to 0.5 µM | CNc1cc(C)nc(Nc2cc3c(c(C4=CCNCCC4)c2)COC3)n1 [Compound 311]
46 | 0.5 to 2 µM | 0.5 to 2 µM | 0.1 to 0.5 µM | Cc1cc(NC2COC2)cc(Nc2cc3c(c(C4=CCN(C)CCC4)c2)OCC3)n1 [Compound 312]
47 | 0.1 to 0.5 µM | 0.5 to 2 µM | 0.1 to 0.5 µM | Cc1cc(NC2COC2)cc(Nc2cc3c(c(C4=CCNCCC4)c2)OCC3)n1 [Compound 313]
48 | 0.5 to 2 µM | 0.1 to 0.5 µM | 0.1 to 0.5 µM | CNc1cc(C2CC2)nc(Nc2cc3c(c(C4=CCN(C)CCC4)c2)OCC3)n1 [Compound 314]
49 | 0.1 to 0.5 µM | 0.1 to 0.5 µM | 0.1 to 0.5 µM | CCNc1cc(C)nc(Nc2cc3c(c(C4=CCNCCC4)c2)OCC3)n1 [Compound 315]

— patent US20240368139A1, “NOVEL MODULATORS OF EHMT1 AND EHMT2 AND THERAPEUTIC USE THEREOF” (Tango Therapeutics, Inc., priority 2021, published 2024)
